Our source for the IC50 values is EP0807629B1, “Sulfonamido substituted chromane derivatives, method for their preparation, their use as medicaments or diagnostic agents aswell as medicaments containing them” (Aventis Pharma Deutschland GmbH, priority 1996, dated 1997).

This assay relates to gastrischen Drüsenschläuche. Description: 14C-aminopyrine accumulation in isolated gastric glands (inhibition of gastric acid secretion). It is filed as cell-based, Kaninchen. To be noted: read-out: IC50 Inhibition der stimulierten AP-Akkumulation. The source says: Methode: Die Hochdruckperfusion des […] wurde nach der Beschreibung von Berglindh und Obrink (1) und unter Anwendung einiger Modifikationen, wie sie an anderer Stelle berichtet werden (2), ausgeführt. Kaninchen (männlich und weiblich, 2 - 3 kg) wurden schmerzfrei unter Narkose durch zervikale Dislokation getötet und der Magen wie in der Literatur berichtet perfundiert (1). Die Mukosa des Magenfundus wurde mit einem Schaber entfernt und mittels einer Schere zerkleinert. Die so erhaltenen Mukosafragmente wurden mit_1 mg/ml Kollagenase in einem Medium bestehend aus 100 mM NaCl, 5 mM KCI, 0,5 mM NaH2PO4, 1 mM Na2HPO4, 1 mM CaCl2, 1,5 mM MgCl2, 20 mM NaHCO3, 20 mM HEPES, 2mg/ml Glukose und 1 mg/ml Kaninchenalbumin für 30 - 45 min bei 37°C behandelt, wobei der pH des Gemisches mit Tris-Puffer auf 7,4 eingestellt war. Die Drüsenschläuche (gastric glands) wurden durch ein Nylonnetz zur Entfernung grober Fragmente filtriert und 3 mal mit Inkubationsmedium gespült. Anschließend wurden die Drüsenschläuche im Medium in einer Konzentration von 2 - 4 mg Trockengewicht/ml suspendiert.
Als Maß für die Fähigkeit der gastrischen Drüsenschläuche zur Säurebildung wurde die Akkumulation von ^14C-Aminopyrin (^14C-AP) bestimmt (3). Hierzu wurden Proben von 1 ml Drüsenschlauchsuspension mit ^14C-AP (1 µM, 200 000 cpm) und der zu testenden Verbindung inkubiert und für 20 - 30 min bei 37°C in einem schüttelnden Wasserbad behandelt. Anschließend wurden Histamin (100 µM), dbcAMP (0.3 oder 1 mM) oder Carbachol (100 µM) zugegeben, gefolgt von einer zweiten Inkubationsdauer von 30 - 45 min.. Die Inkubation wurde anschließend beendet durch Zentrifugiren der Proben für eine halbe Minute. Die überstehende Flüssigkeit wurde entfernt und die erhaltenen pellets in 1 ml NaOH gelöst. Proben der Pellets und des Flüssigkeitsüberstands wurden im Szintillationszähler gemessen. Das AP-Verhältnis der intraglandulären und extraglandulären Radioaktivität wurde nach Sack und Spenney (4) berechnet. Alle Bestimmungen wurden dreifach durchgeführt.

Where two headings read alike, the source gives them in different places.

With `CCS(=O)(=O)N(C)[C@@H]1c2cc(C#N)ccc2OC(C)(C)[C@H]1O` (relative stereo) [293B, trans-6-Cyano-4-(N-ethylsulfonyl-N-methylamino)-3-hydroxy-2,2-dimethyl-chroman], the IC50 by setting is: (after Carbachol stimulation (100 µM)) 5 µM; (after Histamin stimulation (100 µM)) 20 µM; (after dbcAMP stimulation (0.3 or 1 mM)) 20 µM.
